ChEMBL document CHEMBL2177023, “Effects of antimalarial molecules on the gametocyte stage of Plasmodium falciparum: the debate” (J Med Chem, 2012)

Key:
Plasmodium falciparum [1] = assay: Antimalarial activity against Plasmodium falciparum KT1 gametocytes; assay type: functional, organism-based
Plasmodium falciparum [2] = assay: Antimalarial activity against Plasmodium falciparum KT3 gametocytes; assay type: functional, organism-based
Plasmodium falciparum [3] = assay: Antimalarial activity against Plasmodium falciparum gametocytes by GFP-luciferase reporter gene assay; assay type: functional, organism-based
[4] = (§1) Half life in human plasma; assay type: ADME, cell-free
Plasmodium falciparum [5] = assay: Antimalarial activity against Plasmodium falciparum gametocytes; assay type: functional, organism-based
Plasmodium falciparum [6] = assay: Antimalarial activity against transgenic Plasmodium falciparum 3D7 GFP16B gametocytes; assay type: functional, organism-based
Plasmodium falciparum [7] = assay: Antimalarial activity against Plasmodium falciparum stage 3 to 5 gametocytes; assay type: functional, organism-based
Plasmodium chabaudi = assay: Antimalarial activity against Plasmodium chabaudi infected rat malaria model; assay type: functional
Plasmodium berghei [8] = assay: Antimalarial activity against Plasmodium berghei infected in mosquitoes assessed as reduction in number of sporozoites; assay type: functional; design: scale not given: the % may be the effect or the level left
Plasmodium berghei [9] = assay: Antimalarial activity against Plasmodium berghei infected in mosquitoes assessed as reduction in number of oocysts; assay type: functional; design: scale not given: the % may be the effect or the level left
Plasma = assay: as §1; assay type: ADME, cell-free

For `CN(C)Cc1ccc(Nc2c3ccccc3nc3ccccc23)cc1`, the IC50 (Plasmodium falciparum [1]) was 600 nM and the IC50 (Plasmodium falciparum [2]) was 600 nM.
With `CN(C)c1ccc2nc3ccc(=[N+](C)C)cc-3sc2c1` [METHYLENE BLUE CATION] the IC50 (Plasmodium falciparum [3]) was 12 nM.
Compound `COc1cc(C)c2c(Oc3cccc(C(F)(F)F)c3)c(OC)cc(NC(C)CCCN)c2n1` (stereo unspecified) [TAFENOQUINE] has a half-life [4] of 14 days.
Compound `C=C(NC(=O)C(=C)NC(=O)c1csc(C2=N[C@@H]3c4csc(n4)[C@H]4NC(=O)c5csc(n5)[C@H]([C@](C)(O)[C@@H](C)O)NC(=O)[C@H]5CSC(=N5)/C(=C/C)NC(=O)[C@H]([C@@H](C)O)NC(=O)c5csc(n5)[C@]3(CC2)NC(=O)[C@H](C)NC(=O)C(=C)NC(=O)[C@H](C)NC(=O)[C@H]([C@@H](C)CC)N[C@@H]2C=Cc3c([C@H](C)O)cc(nc3[C@H]2O)C(=O)O[C@@H]4C)n1)C(N)=O` [THIOSTREPTON] has an IC50 (Plasmodium falciparum [5]) of less than 10 µM.
Work on `COc1ccc2nc3cc(Cl)ccc3c(Nc3cc(CN4CCCC4)c(O)c(CN4CCCC4)c3)c2n1` [PYRONARIDINE] yielded an IC50 (Plasmodium falciparum [1]) of 6 nM, an IC50 (Plasmodium falciparum [6]) of 23 nM and an IC50 (Plasmodium falciparum [2]) of 20 nM.
`COc1cc(N[C@H](C)CCCN)c2nccc(C)c2c1Oc1ccc(Cl)c(Cl)c1` gave an IC50 (Plasmodium falciparum [5]) of 3.8 µM.
`CC[C@H](C)[C@H](NC(=O)[C@H]([C@@H](C)CC)N(C)C(C)=O)C(=O)N[C@H](C(=O)N[C@@H](CC(C)C)C(=O)[C@@]1(C)CO1)[C@@H](C)O` [EPOXOMYCIN] showed an IC50 (Plasmodium falciparum [7]) of 2 nM.
In the case of `COc1cc2cc(C(=O)Nc3cc(N)c4ccccc4c3CCCl)[nH]c2c(OC)c1OC` [CENTANAMYCIN], the ED50 (Plasmodium chabaudi) is reported as 1.5 mg/kg, the Activity (Plasmodium berghei [8]) is reported as 99% and the Activity (Plasmodium berghei [9]) is reported as 83%.
Compound `COc1cc(NC(C)CCCN)c2ncccc2c1` (stereo unspecified) [PRIMAQUINE] has a t1/2 (Plasma) of 0.03 weeks, an IC50 (Plasmodium falciparum [1]) of 800 nM and an IC50 (Plasmodium falciparum [2]) of 2100 nM.
